The IC50 is the concentration needed to halve the response being measured.

Results on 16 molecules are retold here after patent publication US12060349B2, “Glucosylceramide synthase inhibitors” (Genzyme Corporation, priority 2012, dated 2024).

The subject of assay [1] is C32 human melanoma cells. Briefly: cell viability in the C32 cell-based assay (Viability, C32 IC50). The conditions noted are these: concentration causing 50% cell death, values greater than 10 represent a lack of cell death. A digest of the protocol: (§1)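 Two melanoma lines, mouse B16 and human C32, were treated and surface GM3 quantified by antibody immunofluorescence for IC50. A parallel viability readout gives the concentration killing 50% of cells, with values over 10 indicating no cell death.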

Assay [2] deals with B16 mouse melanoma cells. Briefly: cell viability in the B16 cell-based assay (Viability, B16 IC50). The conditions noted are these: Mus musculus. A digest of the protocol:
as §1

The test system of assay [3] is GM3 expression on the cell surface, C32 human melanoma cells. Briefly: cell based phenotypic assay, cell surface GM3 by antibody mediated immunofluorescence, C32 (GM3 C32 IC50). The conditions noted are these: 50% inhibition of GM3 expression on the cell surface. A digest of the protocol: (§2)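 Both lines undergo the phenotypic GM3 assay, and viability is recorded from that same cell-based run.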

The target of assay [4] is T1, glucosylceramide synthase (Homo sapiens, UniProt Q16739).
T1 construct: Microsomes were isolated from A375 human melanoma cells; endogenous in cells; host or cells: A375 human melanoma cells (microsomal fraction, 100,000 g pellet)
T1 sequence (Q16739 1-394): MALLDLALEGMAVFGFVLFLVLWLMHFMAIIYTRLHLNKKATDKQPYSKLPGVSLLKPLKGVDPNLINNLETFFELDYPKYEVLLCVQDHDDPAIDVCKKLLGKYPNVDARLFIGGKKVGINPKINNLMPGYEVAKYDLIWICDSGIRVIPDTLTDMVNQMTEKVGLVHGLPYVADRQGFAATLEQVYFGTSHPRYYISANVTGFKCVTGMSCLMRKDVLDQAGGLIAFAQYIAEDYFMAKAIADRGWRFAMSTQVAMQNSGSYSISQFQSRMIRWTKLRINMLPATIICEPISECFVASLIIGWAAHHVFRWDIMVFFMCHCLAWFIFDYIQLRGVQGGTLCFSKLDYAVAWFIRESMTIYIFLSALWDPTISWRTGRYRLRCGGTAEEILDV
Briefly: microsomal assay measuring conversion of ceramide to glucosylceramide by HPLC (GCS IC50). Type of assay: biochemical. The conditions noted are these: concentration causing 50% inhibition of glucosylceramide synthase activity. Summed up:
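Microsomal preparation assayed for glucosylceramide synthase by direct HPLC measurement of ceramide conversion to glucosylceramide. GCS IC50 is the compound concentration giving 50% inhibition of enzyme activity.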

Assay [5] concerns GM3 expression on the cell surface, B16 mouse melanoma cells. In words: cell based phenotypic assay, cell surface GM3 by antibody mediated immunofluorescence, B16 (GM3 B16 IC50). The following applies: 50% inhibition of GM3 expression on the cell surface. Summed up:
as §2

[6] abbreviates: Homo sapiens, C32, C32 cells, read-out: Viability, C32 IC50.
Setting [7] is: B16, B16 cells, concentration causing 50% cell death, values greater than 10 represent a lack of cell death, read-out: Viability, B16 IC50.
[8] abbreviates: Homo sapiens, C32 human melanoma cells, read-out: GM3 C32 IC50.
Where [9] appears, read: Mus musculus, B16 mouse melanoma cells, read-out: GM3 B16 IC50.
Where [10] appears, read: Homo sapiens, C32, read-out: Viability, C32 IC50, C32 cells.
[11] abbreviates: B16, read-out: Viability, B16 IC50.
Where [12] appears, read: Homo sapiens, read-out: GM3 C32 IC50, C32 human melanoma cells.
[13] abbreviates: Mus musculus, read-out: GM3 B16 IC50, B16 mouse melanoma cells.

Like-named read-outs stand apart in the source and are kept apart here. Some results are limits rather than exact numbers.

Turning to `CC(C)(NC(=O)OC1CCN2CCC1CC2)c1ccc(-c2ccc(C(=O)N3CCC(F)(F)CC3)cc2)cc1` (centres unmarked) [Example 271, 1-Azabicyclo[3.2.2]nonan-4-yl 2-(4′-(4,4-difluoropiperidine-1-carbonyl)biphenyl-4-yl)propan-2-ylcarbamate], the IC50 is 316 nM in assay [1] (setting [6]); at least 10000 nM in assay [2] (setting [7]); 2.64 nM in assay [3] (setting [8]); 9.42 nM in assay [4]; 60.7 nM in assay [5] (setting [9]).

With `CCC1(NC(=O)NC(C)(C)c2ccc(-c3ccc(C(=O)N4CCC(F)(F)CC4)cc3)cc2)CN2CCC1CC2` (centres unmarked) [Example 272, 1-(2-(4′-(4,4-Difluoropiperidine-1-carbonyl)biphenyl-4-yl)propan-2-yl)-3-(3-ethylquinuclidin-3-yl)urea], the IC50 in assay [1] (setting [6]) was 1000 nM; in assay [2] (setting [7]), at least 10000 nM; in assay [3] (setting [8]), 2.15 nM; in assay [4] it was 16.4 nM; in assay [5] (setting [9]), 24.9 nM.

As to `CC(C)(NC(=O)OC1CN2CCC1CC2)c1ccc(-c2ccc(C(=O)N3CC(F)(F)C3)cc2)cc1` (centres unmarked) [Example 273, Quinuclidin-3-yl 2-(4′-(3,3-difluoroazetidine-1-carbonyl)biphenyl-4-yl)propan-2-ylcarbamate], the IC50 in assay [1] (setting [10]) is 3160 nM; in assay [2] (setting [11]), at least 10000 nM; in assay [3] (setting [12]), 10.6 nM; in assay [4], 108 nM; in assay [5] (setting [13]), 74 nM.

With `CC(C)(NC(=O)OC1CCN2CCC1CC2)c1ccc(-c2ccc(C(=O)N3CC(F)(F)C3)cc2)cc1` (centres unmarked) [Example 274, 1-Aza-bicyclo[3.2.2]nonan-4-yl 2-(4′-(3,3-difluoroazetidine-1-carbonyl)biphenyl-4-yl)propan-2-ylcarbamate], the IC50 is 1000 nM in assay [1] (setting [6]); at least 10000 nM in assay [2] (setting [7]); 4.78 nM in assay [3] (setting [8]); 30.4 nM in assay [4]; 67.3 nM in assay [5] (setting [9]).

As to `CCC1(NC(=O)NC(C)(C)c2ccc(-c3ccc(C(=O)N4CC(F)(F)C4)cc3)cc2)CN2CCC1CC2` (centres unmarked) [Example 275, 1-(2-(4′-(3,3-Difluoroazetidine-1-carbonyl)biphenyl-4-yl)propan-2-yl)-3-(3-ethylquinuclidin-3-yl)urea], the IC50 is 1000 nM in assay [1] (setting [6]); at least 10000 nM in assay [2] (setting [7]); 2.92 nM in assay [3] (setting [8]); 75.6 nM in assay [4]; 55.4 nM in assay [5] (setting [9]).

As for `CC(C)(NC(=O)NC1(C)CCN2CCC1CC2)c1cccc(Oc2cccc(C(=O)N3CCOCC3)c2)c1` (centres unmarked) [Example 276, 1-(4-Methyl-1-azabicyclo[3.2.2]nonan-4-yl)-3-(2-(3-(3-(morpholine-4-carbonyl)phenoxy)phenyl)propan-2-yl)urea], the IC50 is 3160 nM in assay [1] (setting [6]); at least 10000 nM in assay [2] (setting [7]); 29.6 nM in assay [3] (setting [8]); 20 nM in assay [4]; 1530 nM in assay [5] (setting [9]).

`CC(C)(NC(=O)NC1(C)CN2CCC1CC2)c1cccc(Oc2cccc(C(=O)N3CCOCC3)c2)c1` (centres unmarked) [Example 277, 1-(3-Methylquinuclidin-3-yl)-3-(2-(3-(3-(morpholine-4-carbonyl)phenoxy)phenyl)propan-2-yl)urea]: the IC50 in assay [1] (setting [6]) is at least 10000 nM; in assay [2] (setting [7]), at least 10000 nM; in assay [3] (setting [8]), 80.1 nM; in assay [4], 91.7 nM; in assay [5] (setting [9]) it was 2030 nM.

`CC(C)(NC(=O)OC1CCN2CCC1CC2)c1cccc(Oc2cccc(C(=O)N3CCOCC3)c2)c1` (centres unmarked) [Example 278, 1-Aza-bicyclo[3.2.2]nonan-4-yl 2-(3-(3-(morpholine-4-carbonyl)phenoxy)phenyl)propan-2-ylcarbamate]: the IC50 in assay [1] (setting [6]) was at least 10000 nM; in assay [2] (setting [7]), at least 10000 nM; in assay [3] (setting [8]) it was 53 nM; in assay [4] it was 593 nM; in assay [5] (setting [9]), 1440 nM.

With `CC(C)(NC(=O)OC1CN2CCC1CC2)c1cccc(Oc2cccc(C(=O)N3CCOCC3)c2)c1` (centres unmarked) [Example 279, Quinuclidin-3-yl 2-(3-(3-(morpholine-4-carbonyl)phenoxy)phenyl)propan-2-ylcarbamate], the IC50 in assay [1] (setting [10]) was 3160 nM; in assay [2] (setting [11]) it was at least 10000 nM; in assay [3] (setting [12]), 217 nM; in assay [4], 4330 nM; in assay [5] (setting [13]) it was 3920 nM.

Take `CC(C)(NC(=O)NC1(C)CN2CCC1CC2)c1ccc(Oc2ccc(C(=O)N3CCOCC3)cc2)cc1` (centres unmarked) [Example 280, 1-(3-Methylquinuclidin-3-yl)-3-(2-(4-(4-(morpholine-4-carbonyl)phenoxy)phenyl)propan-2-yl)urea]: the IC50 is 1000 nM in assay [1] (setting [6]); at least 10000 nM in assay [2] (setting [7]); 49.1 nM in assay [3] (setting [8]); 164 nM in assay [4]; 1940 nM in assay [5] (setting [9]).

Consider `CC(C)(NC(=O)NC1(C)CCN2CCC1CC2)c1ccc(Oc2ccc(C(=O)N3CCOCC3)cc2)cc1` (centres unmarked) [Example 281, 1-(4-Methyl-1-azabicyclo[3.2.2]nonan-4-yl)-3-(2-(4-(4-(morpholine-4-carbonyl)phenoxy)phenyl)propan-2-yl)urea], for which the IC50 in assay [1] (setting [6]) is 1000 nM; in assay [2] (setting [7]) it was at least 10000 nM; in assay [3] (setting [8]), 7.79 nM; in assay [4], 31.6 nM; in assay [5] (setting [9]), 440 nM.

`CC(C)(NC(=O)OC1CCN2CCC1CC2)c1ccc(Oc2ccc(C(=O)N3CCOCC3)cc2)cc1` (centres unmarked) [Example 282, 1-Azabicyclo[3.2.2]nonan-4-yl 2-(4-(4-(morpholine-4-carbonyl)phenoxy)phenyl)propan-2-ylcarbamate]: the IC50 was 3160 nM in assay [1] (setting [6]); at least 10000 nM in assay [2] (setting [7]); 40.4 nM in assay [3] (setting [8]); 479 nM in assay [4]; 660 nM in assay [5] (setting [9]).

`CN(C)C(=O)c1ccc(Oc2ccc(C(C)(C)NC(=O)OC3CN4CCC3CC4)cc2)cc1` (centres unmarked) [Example 283, Quinuclidin-3-yl 2-(4-(4-(dimethylcarbamoyl)phenoxy)phenyl)propan-2-ylcarbamate]: the IC50 in assay [1] (read-out: Viability, C32 IC50, C32 cells) was at least 10000 nM; in assay [2] (setting [11]), at least 10000 nM; in assay [3] (read-out: GM3 C32 IC50, C32 human melanoma cells) it was 114 nM; in assay [4], 606 nM; in assay [5] (read-out: GM3 B16 IC50, B16 mouse melanoma cells) it was 1030 nM.

Regarding `CN(C)C(=O)c1ccc(Oc2ccc(C(C)(C)NC(=O)NC3(C)CN4CCC3CC4)cc2)cc1` (centres unmarked) [Example 284, N,N-Dimethyl-4-(4-(2-(3-(3-methylquinuclidin-3-yl)ureido)propan-2-yl)phenoxy)benzamide], the IC50 in assay [1] (setting [6]) was at least 10000 nM; in assay [2] (setting [7]) it was at least 10000 nM; in assay [3] (setting [8]), 60.7 nM; in assay [4], 201 nM; in assay [5] (setting [9]), 3780 nM.

In the case of `CN(C)C(=O)c1ccc(Oc2ccc(C(C)(C)NC(=O)NC3(C)CCN4CCC3CC4)cc2)cc1` (centres unmarked) [Example 285, N,N-Dimethyl-4-(4-(2-(3-(4-methyl-1-azabicyclo[3.2.2]nonan-4-yl)ureido)propan-2-yl)phenoxy)benzamide], the IC50 is 1000 nM in assay [1] (C32 cells, read-out: Viability, C32 IC50); at least 10000 nM in assay [2] (setting [7]); 6.48 nM in assay [3] (C32 human melanoma cells, read-out: GM3 C32 IC50); 16.3 nM in assay [4]; 725 nM in assay [5] (B16 mouse melanoma cells, read-out: GM3 B16 IC50).

Take `CN(C)C(=O)c1ccc(Oc2ccc(C(C)(C)NC(=O)OC3CCN4CCC3CC4)cc2)cc1` (centres unmarked) [Example 286, 1-Azabicyclo[3.2.2]nonan-4-yl 2-(4-(4-(dimethylcarbamoyl)phenoxy)phenyl)propan-2-ylcarbamate]: the IC50 was at least 10000 nM in assay [1] (setting [6]); at least 10000 nM in assay [2] (setting [7]); 31.6 nM in assay [3] (setting [8]); 437 nM in assay [4]; 793 nM in assay [5] (setting [9]).
